For one data set, the target named is hNav1.7 channel (Homo sapiens, UniProt Q15858, W1161R). It is filed as cell-based.
Data set [1] relates to rat model of nociceptive pain. The settings on record: in vivo.
Data set [2] has as its system rat model of monoarthritis induced by 50% intraplantar CFA. Particulars: in vivo.
Data set [3] relates to mouse model of inflammatory pain (100% CFA). The settings on record: in vivo.
In data set [4] the test system is mouse spared nerve injury model of neuropathic pain. Particulars: in vivo.
For data set [5] the following is noted: mouse, in vivo.
In a further data set the test system is mice. The settings on record: mouse, in vivo.
Data set [6] deals with mouse model of CFA-induced inflammatory pain. The settings on record: in vivo.
Data set [7] deals with rodent models of acute and inflammatory pain. Particulars: in vivo; cited from earlier work.
A further data set can be described thus: in vivo. The settings on record: mouse, sc.
The next data set concerns the target Nav1.7 (Homo sapiens, UniProt Q15858, W1161R). Put plainly: cell-based.
In a further data set the target is Nav1.2 (Homo sapiens, UniProt Q99250). Put plainly: cell-based.
Nav1.2, sequence (Q99250 whole entry, looked up): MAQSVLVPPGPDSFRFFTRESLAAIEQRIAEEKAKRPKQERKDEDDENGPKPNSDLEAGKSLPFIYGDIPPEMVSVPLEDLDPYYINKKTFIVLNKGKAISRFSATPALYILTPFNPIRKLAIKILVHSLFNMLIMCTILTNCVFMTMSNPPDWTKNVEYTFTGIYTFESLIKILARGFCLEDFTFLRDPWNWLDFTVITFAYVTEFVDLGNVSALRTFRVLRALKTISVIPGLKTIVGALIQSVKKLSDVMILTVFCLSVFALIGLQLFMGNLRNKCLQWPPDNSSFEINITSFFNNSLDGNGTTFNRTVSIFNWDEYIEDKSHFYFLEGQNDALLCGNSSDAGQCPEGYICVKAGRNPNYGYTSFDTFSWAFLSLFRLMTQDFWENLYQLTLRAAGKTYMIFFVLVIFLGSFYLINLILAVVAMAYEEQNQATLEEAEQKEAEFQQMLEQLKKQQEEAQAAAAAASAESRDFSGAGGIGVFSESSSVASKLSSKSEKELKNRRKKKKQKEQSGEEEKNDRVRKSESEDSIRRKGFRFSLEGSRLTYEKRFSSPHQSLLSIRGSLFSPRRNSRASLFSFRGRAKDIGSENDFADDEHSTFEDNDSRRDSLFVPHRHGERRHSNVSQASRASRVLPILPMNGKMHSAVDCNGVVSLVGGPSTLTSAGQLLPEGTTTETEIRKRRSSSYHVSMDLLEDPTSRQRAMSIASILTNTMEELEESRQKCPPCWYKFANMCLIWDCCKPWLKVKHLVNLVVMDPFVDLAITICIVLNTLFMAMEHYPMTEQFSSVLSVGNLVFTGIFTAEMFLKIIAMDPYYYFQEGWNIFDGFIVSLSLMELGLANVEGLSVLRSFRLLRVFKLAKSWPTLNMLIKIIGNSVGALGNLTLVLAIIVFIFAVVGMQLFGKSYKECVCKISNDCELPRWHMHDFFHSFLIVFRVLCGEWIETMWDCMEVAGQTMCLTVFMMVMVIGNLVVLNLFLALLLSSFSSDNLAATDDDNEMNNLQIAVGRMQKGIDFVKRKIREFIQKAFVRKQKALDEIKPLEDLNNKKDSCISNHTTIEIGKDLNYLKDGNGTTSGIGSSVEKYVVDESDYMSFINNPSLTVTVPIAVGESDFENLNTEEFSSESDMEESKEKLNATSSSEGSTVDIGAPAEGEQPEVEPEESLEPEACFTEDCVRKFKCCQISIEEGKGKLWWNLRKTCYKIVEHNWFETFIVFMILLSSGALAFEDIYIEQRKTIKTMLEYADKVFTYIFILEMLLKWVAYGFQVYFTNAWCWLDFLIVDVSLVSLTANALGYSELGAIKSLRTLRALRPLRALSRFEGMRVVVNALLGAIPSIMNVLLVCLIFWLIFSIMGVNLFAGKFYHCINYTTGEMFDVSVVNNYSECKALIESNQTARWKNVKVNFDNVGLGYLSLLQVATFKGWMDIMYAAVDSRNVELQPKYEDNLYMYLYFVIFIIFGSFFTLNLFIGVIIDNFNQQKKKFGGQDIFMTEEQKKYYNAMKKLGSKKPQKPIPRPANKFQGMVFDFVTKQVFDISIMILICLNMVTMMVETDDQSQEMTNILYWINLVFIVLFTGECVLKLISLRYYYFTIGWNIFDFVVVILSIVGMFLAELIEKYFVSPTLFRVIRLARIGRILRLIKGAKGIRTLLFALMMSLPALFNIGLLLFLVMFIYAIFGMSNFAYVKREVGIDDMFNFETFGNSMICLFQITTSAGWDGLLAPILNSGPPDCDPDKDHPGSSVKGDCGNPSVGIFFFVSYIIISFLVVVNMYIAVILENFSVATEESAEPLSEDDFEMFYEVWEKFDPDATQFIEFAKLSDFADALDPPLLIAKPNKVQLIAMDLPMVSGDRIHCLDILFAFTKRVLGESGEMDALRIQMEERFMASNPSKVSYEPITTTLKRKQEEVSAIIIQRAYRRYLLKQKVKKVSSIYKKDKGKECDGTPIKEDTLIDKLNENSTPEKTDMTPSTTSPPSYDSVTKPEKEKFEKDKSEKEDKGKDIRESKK

Like-named read-outs stand apart in the source and are kept apart here.

We go through four compounds from patent publication US10414808B2 (priority 2012, dated 2019).

Nav1.7, sequence (Q15858 whole entry W1161R, looked up): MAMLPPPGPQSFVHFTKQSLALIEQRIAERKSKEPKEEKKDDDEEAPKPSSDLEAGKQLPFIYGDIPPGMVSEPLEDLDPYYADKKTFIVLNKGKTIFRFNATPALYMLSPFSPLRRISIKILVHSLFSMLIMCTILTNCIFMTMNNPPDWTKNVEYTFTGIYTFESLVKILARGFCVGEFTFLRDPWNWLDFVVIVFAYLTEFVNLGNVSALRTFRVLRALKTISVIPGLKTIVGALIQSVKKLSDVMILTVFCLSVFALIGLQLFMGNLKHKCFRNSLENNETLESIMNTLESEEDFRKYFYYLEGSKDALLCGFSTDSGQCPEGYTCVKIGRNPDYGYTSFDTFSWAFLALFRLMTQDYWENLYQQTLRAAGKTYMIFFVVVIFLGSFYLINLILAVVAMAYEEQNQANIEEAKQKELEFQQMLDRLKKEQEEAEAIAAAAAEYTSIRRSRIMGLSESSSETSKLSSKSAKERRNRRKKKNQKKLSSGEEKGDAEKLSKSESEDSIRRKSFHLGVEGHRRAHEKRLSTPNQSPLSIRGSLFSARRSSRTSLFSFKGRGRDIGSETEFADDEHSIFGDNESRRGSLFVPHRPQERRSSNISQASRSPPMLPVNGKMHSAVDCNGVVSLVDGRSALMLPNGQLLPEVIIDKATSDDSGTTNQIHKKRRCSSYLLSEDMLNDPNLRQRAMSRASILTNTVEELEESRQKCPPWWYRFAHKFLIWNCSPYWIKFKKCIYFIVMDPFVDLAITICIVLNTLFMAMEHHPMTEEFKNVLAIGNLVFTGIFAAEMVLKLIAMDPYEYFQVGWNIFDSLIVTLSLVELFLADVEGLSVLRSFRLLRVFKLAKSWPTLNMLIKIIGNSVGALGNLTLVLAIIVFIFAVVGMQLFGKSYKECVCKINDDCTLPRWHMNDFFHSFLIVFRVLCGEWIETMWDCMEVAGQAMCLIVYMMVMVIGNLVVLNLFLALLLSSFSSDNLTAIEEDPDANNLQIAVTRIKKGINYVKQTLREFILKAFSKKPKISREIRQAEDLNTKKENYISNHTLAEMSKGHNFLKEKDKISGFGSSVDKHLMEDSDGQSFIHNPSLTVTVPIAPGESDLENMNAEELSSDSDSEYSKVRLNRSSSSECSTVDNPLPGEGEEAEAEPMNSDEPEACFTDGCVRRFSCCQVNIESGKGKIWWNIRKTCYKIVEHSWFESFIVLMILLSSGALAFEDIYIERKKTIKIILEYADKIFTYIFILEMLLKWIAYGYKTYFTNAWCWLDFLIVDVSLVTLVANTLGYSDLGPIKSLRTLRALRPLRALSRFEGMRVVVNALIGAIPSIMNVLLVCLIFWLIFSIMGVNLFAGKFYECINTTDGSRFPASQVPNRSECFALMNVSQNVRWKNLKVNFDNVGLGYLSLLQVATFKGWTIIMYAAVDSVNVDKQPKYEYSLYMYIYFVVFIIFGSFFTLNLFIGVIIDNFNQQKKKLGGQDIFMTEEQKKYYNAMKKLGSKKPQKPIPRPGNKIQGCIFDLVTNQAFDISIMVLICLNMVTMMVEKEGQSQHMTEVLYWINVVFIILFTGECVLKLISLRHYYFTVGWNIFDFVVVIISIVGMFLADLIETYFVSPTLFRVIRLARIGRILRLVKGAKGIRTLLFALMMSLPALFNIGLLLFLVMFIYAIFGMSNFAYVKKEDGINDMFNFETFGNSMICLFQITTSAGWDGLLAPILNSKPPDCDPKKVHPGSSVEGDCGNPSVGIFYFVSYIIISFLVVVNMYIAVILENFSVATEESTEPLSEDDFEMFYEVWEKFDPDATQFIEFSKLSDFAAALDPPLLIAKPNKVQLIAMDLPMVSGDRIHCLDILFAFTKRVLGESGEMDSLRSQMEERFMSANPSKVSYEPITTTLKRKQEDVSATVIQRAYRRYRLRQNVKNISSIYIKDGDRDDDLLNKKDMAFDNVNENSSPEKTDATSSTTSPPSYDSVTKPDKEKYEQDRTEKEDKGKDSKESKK

For `CC[C@H](C)[C@H](NC(=O)[C@H](CCC(N)=O)NC(=O)[C@H](Cc1ccc(O)cc1)NC(=O)[C@H](CCCCN)NC(=O)[C@@H]1CSSC[C@@H]2NC(=O)[C@H](CCC(N)=O)NC(=O)[C@H](CC(=O)O)NC(=O)[C@H](CC(N)=O)NC(=O)[C@H](CO)NC(=O)[C@@H]3CCCN3C(=O)[C@H](CC(N)=O)NC(=O)[C@@H]3CSSC[C@H](NC(=O)[C@H](C(C)C)NC(=O)[C@H](CC(C)C)NC(=O)[C@H](CCCCN)NC(=O)[C@H](CO)NC(=O)[C@H](CO)NC(=O)[C@H](CCCCN)NC(=O)[C@H](CSSC[C@H](NC(=O)[C@H](CCC(=O)O)NC(=O)[C@@H]4CCCN4C(=O)CN)C(=O)N[C@@H](CC(C)C)C(=O)N[C@@H](CCC(=O)O)C(=O)N[C@@H]([C@@H](C)CC)C(=O)N[C@@H](Cc4ccccc4)C(=O)N[C@@H](CCCCN)C(=O)N[C@@H](C)C(=O)N3)NC2=O)C(=O)N[C@@H](CO)C(=O)N[C@@H](CCCNC(=N)N)C(=O)N[C@@H](CCCCN)C(=O)N[C@@H]([C@@H](C)O)C(=O)N[C@@H](CCCNC(=N)N)C(=O)N[C@@H](Cc2c[nH]c3ccccc23)C(=O)N1)C(=O)NCC(=O)N[C@@H](CCCCN)C(=O)O` [Recombinant Huwentoxin-IV], the “ratio of IC50 for Nav1.2 to IC50 for Nav1.7” value at hNav1.7 channel is reported as “about 2.143”.
On to `CSCC[C@@H]1NC(=O)CNC(=O)[C@H](CCC(=O)O)NC(=O)[C@@H]2CSSC[C@H](NC(=O)[C@@H](N)Cc3ccc(O)cc3)C(=O)N[C@@H](CCC(N)=O)C(=O)N[C@@H](CCCCN)C(=O)N[C@@H](Cc3c[nH]c4ccccc34)C(=O)N[C@@H](CCSC)C(=O)N[C@@H](Cc3c[nH]c4ccccc34)C(=O)N[C@@H]([C@@H](C)O)C(=O)N[C@H]3CSSC[C@H](NC(=O)[C@H](C(C)C)NC1=O)C(=O)N[C@@H](CCCNC(=N)N)C(=O)N[C@@H](CC(C)C)C(=O)N[C@@H](Cc1c[nH]c4ccccc14)C(=O)N[C@H](C(=O)N[C@@H](CCCCN)C(=O)N[C@@H](CCCCN)C(=O)N[C@@H](CCCCN)C(=O)N[C@@H](CC(C)C)C(=O)N[C@@H](Cc1c[nH]c4ccccc14)C(=O)O)CSSC[C@H](NC(=O)[C@H](CCCCN)NC(=O)[C@H](CCCNC(=N)N)NC(=O)[C@H](CCC(=O)O)NC(=O)[C@H](CO)NC(=O)[C@H](CC(=O)O)NC3=O)C(=O)N2` [ProTx-II], for which the “AUC of gram thresholds (mean vehicle AUC subtracted), comparison between dose groups” value in [1] is “significantly different except between the 0.3 and 3 nmole doses”. Moreover, in data set [1] (sc), the “paw pressure threshold vs vehicle-treated animals” value is “increased thresholds significantly” and the “paw pressure threshold, dose dependence” value was “dose-dependent increase”. The “tactile threshold vs vehicle injected animals” value in [2] is “significantly increased”. Further, the CFA-induced tactile allodynia result in [3] is on record as “profound anti-allodynic effect”. Besides, the “efficacy in tactile (Von Frey) pain assay” value in data set [4] was “not efficacious”. For the same compound, the “Est Cp” value in [5] is reported as “BLOQ”. In the data set on mice, the “Behav Obs” value is “normal” and the tolerability result is reported as “well tolerated”. Further, in data set [6], the motor impairment entry is given as “did not produce any obvious motor impairment”, the tactile threshold entry is recorded as “significantly increased” and the thermal threshold result is “significantly increased”. Besides, the “efficacy in rodent models of acute and inflammatory pain” value in data set [7] is given as “non-efficacious”. Besides, in the data set “in vivo” (45.6 ug/day), the level at time molar at 48 h turned out to be 50 nM, the level at time molar at 120 h stood at 55 nM and the level at time molar at 168 h came to 83 nM. In addition, the level at time molar at 72 h in the data set “in vivo” (228 ug/day) turned out to be 224 nM.
For `NCC1(CC(=O)O)CCCCC1` [gabapentin], the CFA-induced tactile allodynia entry in data set [3] (po, 150 mg/kg) was “reduced tactile allodynia albeit to a lesser extent than ProTx-II”.
Take `CC[C@H](C)[C@H](NC(=O)[C@H](CCC(N)=O)NC(=O)[C@H](Cc1ccc(O)cc1)NC(=O)[C@H](CCCCN)NC(=O)[C@@H]1CSSC[C@@H]2NC(=O)[C@H](CCC(N)=O)NC(=O)[C@H](CC(=O)O)NC(=O)[C@H](CC(N)=O)NC(=O)[C@H](CO)NC(=O)[C@@H]3CCCN3C(=O)[C@H](CC(N)=O)NC(=O)[C@@H]3CSSC[C@H](NC(=O)[C@H](C(C)C)NC(=O)[C@H](CC(C)C)NC(=O)[C@H](CCCCN)NC(=O)[C@H](CO)NC(=O)[C@H](CO)NC(=O)[C@H](CCCCN)NC(=O)[C@H](CSSC[C@H](NC(=O)[C@H](C)NC(=O)[C@@H]4CCCN4C(=O)CN)C(=O)N[C@@H](CC(C)C)C(=O)N[C@@H](CCC(=O)O)C(=O)N[C@@H]([C@@H](C)CC)C(=O)N[C@@H](Cc4ccccc4)C(=O)N[C@@H](CCCCN)C(=O)N[C@@H](C)C(=O)N3)NC2=O)C(=O)N[C@@H](CO)C(=O)N[C@@H](CCCNC(=N)N)C(=O)N[C@@H](CCCCN)C(=O)N[C@@H]([C@@H](C)O)C(=O)N[C@@H](CCCNC(=N)N)C(=O)N[C@@H](Cc2c[nH]c3ccccc23)C(=O)N1)C(=O)NCC(=O)N[C@@H](CCCCN)C(=O)O` [NV1D82 | 243]: the IC50 on Nav1.7 was determined as 40 nM; against Nav1.2, 50 nM.
